Reference: patent US20250084078A1, “FUSED RING-SUBSTITUTED SIX-MEMBERED HETEROCYCLIC COMPOUND, AND PREPARATION METHOD THEREFOR AND USE THEREOF” (GENFLEFT THERAPEUTICS (SHANGHAI) INC., priority 2022, published 2025)

Molecular target: HPK1 (Homo sapiens, UniProt Q92918)
Test: SLP76 phosphorylation assay (intracellular HPK1 inhibitory activity, p-SLP76 S376 ELISA in Jurkat cells)
Conditions: p-SLP76 IC50, Jurkat, Clone E6-1 cells; 1 h compound pre-incubation; anti-CD3 beads stimulation 20 min; Phospho-SLP-76 (Ser376) ELISA
Method: SLP76 Phosphorylation Assay
Intracellular HPK1 inhibitory activity was tested by the detection of SLP76 phosphorylation at S376.
Preparation of 1000× drug stock plate: a 1000× compound stock plate was prepared. […] The compound stock plate was sealed with a sealing film and stored in a −20° C. refrigerator for later use.
Preparation of Beads wash buffer: 0.1 mL FBS and 0.4 mL 0.5 M EDTA (with a final concentration of 2 mM) were added to 100 mL PBS and stored in a 4° C. refrigerator for later use.
100× Protease Inhibitor Cocktail in 1/20 total volume was added and stored on wet ice for later use. The buffer was ready to use.
Cell inoculation and dosing: the 1000× drug stock plate was taken and melted at room temperature in the dark. […] Jurkat cells in the logarithmic growth phase were selected and collected. […] The cells were inoculated into a 96-well plate (the volume was 90 μL per well), and a blank control well (without cells inoculation, and in which 110 μL of medium was added) was set. 10 μL of a drug-containing culture medium (10×) was transferred from the 10× drug intermediate plate into the 96-well cell plate (with a final concentration of 0.1% DMSO), and set a DMSO control group (in which 0.1% DMSO was added to the treated cells), a stimulated control group (in which 10 μL of culture medium was added to treat cells) and an unstimulated group (in which 10 μL of culture medium was added to treat cells). The wells were duplicated, gently patted, mixed, and then placed into a 5% CO2 incubator at 37° C. for 1 h.
Anti-CD3 beads stimulation: Dynabeads anti-human CD3 was taken, shaken, and mixed for 60 s. The required volume of beads was pipetted, and an equal volume or at least 1 mL of washing solution was added to wash once. Fresh complete medium was then added to resuspend and adjust the density of the beads to 4×10^7/mL, and the beads were placed on ice for later use. At the end of drug pre-incubation, the cell culture plate was taken out. 10 μL Dynabeads anti-human CD3 was added to each well to treat the cells, and 10 μL the culture medium was added to the unstimulated group. The cell culture plate was shaken to mix well at 2500 rpm for 10 s, and then placed into a 5% CO2 incubator at 37° C. and continued to culture for 20 min.
Detection of p-SLP76 protein level: PathScan Phospho-SLP-76 (Ser376) Sandwich ELISA Kit was applied to detect p-SLP76 protein level. At the end of the Anti-CD3 beads stimulation, the cell culture plate was removed from the incubator. […] After lysis, the cell culture plate was centrifuged at 4° C., 400×g for 5 min. 25 μL of sample and 75 μL of sample diluent were added to each well, and the plate was placed in a 5% CO2 incubator at 37° C. for 2 h. The subsequent detection steps were carried out following the kit instructions, and the absorbance (OD value) of each well was read at 450 nm by a microplate reader.

Chain of HPK1 (Q92918 whole entry): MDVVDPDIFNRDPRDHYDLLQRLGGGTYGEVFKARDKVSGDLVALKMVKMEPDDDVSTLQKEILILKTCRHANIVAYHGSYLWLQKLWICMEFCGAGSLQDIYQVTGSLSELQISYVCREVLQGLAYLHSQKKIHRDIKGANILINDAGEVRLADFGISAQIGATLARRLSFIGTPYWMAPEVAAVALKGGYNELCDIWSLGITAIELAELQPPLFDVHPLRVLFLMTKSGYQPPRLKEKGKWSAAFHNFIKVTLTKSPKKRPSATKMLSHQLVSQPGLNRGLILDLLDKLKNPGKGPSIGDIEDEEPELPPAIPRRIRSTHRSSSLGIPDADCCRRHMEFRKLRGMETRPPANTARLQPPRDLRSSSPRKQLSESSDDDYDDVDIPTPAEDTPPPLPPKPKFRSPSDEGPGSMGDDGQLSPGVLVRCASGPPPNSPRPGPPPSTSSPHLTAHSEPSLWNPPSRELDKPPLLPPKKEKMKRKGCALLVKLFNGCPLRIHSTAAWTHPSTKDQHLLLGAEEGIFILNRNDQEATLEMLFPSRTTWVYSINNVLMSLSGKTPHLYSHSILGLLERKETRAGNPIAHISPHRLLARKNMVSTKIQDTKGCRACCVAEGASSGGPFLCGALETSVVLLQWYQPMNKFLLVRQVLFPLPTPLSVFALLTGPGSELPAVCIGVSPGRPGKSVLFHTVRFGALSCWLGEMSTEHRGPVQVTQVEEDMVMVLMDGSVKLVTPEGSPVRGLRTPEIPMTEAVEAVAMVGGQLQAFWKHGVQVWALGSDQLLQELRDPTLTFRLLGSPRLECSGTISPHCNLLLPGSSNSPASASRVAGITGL

Row | IC50 [µM] | Compound
1 | 0.42 | CN1C2CCC1CN(C(=O)N1CCc3cc(-c4cnc5[nH]cc(Cl)c5n4)cc([C@@H]4COCCN4)c3C1)C2 [Compound Z575, (6-(7-chloro-5H-pyrrolo[2,3-b]pyrazin-2-yl)-8-((R)-morpholin-3-yl)-3,4-dihydroisoquinolin-2(1H)-yl)(8-methyl-3,8-diazabicyclo[3.2.1]octan-3-yl)methanone]
2 | 0.443 | Cc1c(Cl)[nH]c2ncc(-c3cc4c(c([C@@H]5COCCN5)c3)CN(C(=O)C(C)(C)O)CC4)cc12 [Compound Z481, (R)-1-(6-(2-chloro-3-methyl-1H-pyrrolo[2,3-b]pyridin-5-yl)-8-(morpholin-3-yl)-3,4-tetrahydroisoquinolin-2(1H)-yl)-2-hydroxy-2-methylpropan-1-one]
3 | 0.0826 | Cc1c[nH]c2ncc(-c3cc4c(c(C5COCCN5)c3)CN(C(=O)[C@](C)(O)C(F)(F)F)CC4)cc12 (single isomer, unassigned) [Compound Z309-1]
4 | 0.311 | Cc1c[nH]c2ncc(-c3cc4c(c([C@@H]5COCCN5)c3)CN(C(=O)N3CCN(C)CC3)CC4)cc12 [Compound Z482, (R)-(6-(3-methyl-1H-pyrrolo[2,3-b]pyridin-5-yl)-8-(morpholin-3-yl)-3,4-dihydroisoquinolin-2(1H)-yl)(4-methylpiperazin-1-yl)methanone]
5 | 0.127 | Cc1c[nH]c2ncc(-c3cc4c(c([C@@H]5COCCN5)c3)CN(C(=O)N3CC(C)OCC3C)CC4)cc12 (stereo partly drawn) [Compound Z458, (2,5-dimethylmorpholine)(6-(3-methyl-1H-pyrrolo[2,3-b]pyridin-5-yl)-8-((R)-morpholin-3-yl)-3,4-dihydroisoquinolin-2(1H)-yl)methanone]
6 | 0.177 | Cc1c[nH]c2ncc(-c3cc4c(c([C@@H]5COCCN5)c3)CN(C(=O)N3C(C)COCC3C)CC4)cc12 (stereo partly drawn) [Compound Z460, (3,5-dimethylmorpholine)(6-(methyl-methyl-1H-pyrrolo[2,3-b]pyridin-5-yl)-8-((R)-morpholin-3-yl)-3,4-dihydroisoquinolin-2(1H)-yl)methanone]
7 | 0.685 | CC(C)(O)C(=O)N1CCc2cc(-c3cnc4[nH]cc(C#N)c4c3)cc([C@@H]3COCCN3)c2C1 [Compound Z506, (R)-5-(2-(2-hydroxy-2-methylpropanoyl)-8-(morpholin-3-yl)-1,2,3,4-tetrahydroisoquinolin-6-yl)-1H-pyrrolo[2,3-b]pyridine-3-carbonitrile]
8 | 0.317 | CC(=O)c1c[nH]c2ncc(-c3cc4c(c([C@@H]5COCCN5)c3)CN(C(=O)C(C)(C)O)CC4)cc12 [Compound Z593, (R)-1-(6-(3-acetyl-1H-pyrrolo[2,3-b]pyridin-5-yl)-8-(morpholin-3-yl)-3,4-dihydroisoquinolin-2(1H)-yl)-2-hydroxy-2-methylpropan-1-one]
9 | 0.246 | COC1CCN(C(=O)N2CCc3cc(-c4cnc5[nH]cc(Cl)c5c4)cc([C@@H]4COCCN4)c3C2)CC1 [Compound Z589, (R)-(6-(3-chloro-1H-pyrrolo[2,3-b]pyridin-5-yl)-8-(morpholin-3-yl)-3,4-dihydroisoquinolin-2(1H)-yl)(4-methoxypiperidin-1-yl)methanone]
10 | 0.294 | Cc1c[nH]c2ncc(-c3cc4c(c([C@@H]5COCCN5)c3)CN(C(=O)N3C[C@H]5CC[C@@H]3CO5)CC4)cc12 (single isomer, unassigned) [Compound Z643]
11 | 0.159 | COC1(C(=O)N2CCc3cc(-c4cnc5[nH]cc(C)c5c4)cc([C@@H]4COCCN4)c3C2)CC1 [Compound Z373, (R)-(1-methoxycyclopropyl)(6-(3-methyl-1H-pyrrolo[2,3-b]pyridin-5-yl)-8-(morpholin-3-yl)-3,4-dihydroisoquinolin-2(1H)-yl)methanone]
12 | 0.276 | Cc1c[nH]c2ncc(-c3cc4c(c([C@@H]5COCCN5)c3)CN(C(=O)N3CC5(COC5)C3)CC4)cc12 [Compound Z579, (R)-(6-(3-methyl-1H-pyrrolo[2,3-b]pyridin-5-yl)-8-(morpholin-3-yl)-3,4-dihydroisoquinolin-2(1H)-yl)(2-oxa-6-oxaspiro[3.3]heptan-6-yl)methanone]
